In patent publication US8119116B2, “Therapeutics for cancer using 3-bromopyruvate and other selective inhibitors of ATP production” (John Hopkins University School of Medicine, priority 2001, dated 2012):

How the values were obtained:
[1] = test system: VX2 tumor slices; assay: Glycolysis (lactic acid formation) in VX2 tumor slices; assay type: cell-based, rabbit; conditions: for inhibition of VX2 tumor glycolysis in the limited screen: 6 mM agent, 6 mM glucose, 37° C., 5 h
Method: Glycolysis was assayed by monitoring the formation of lactic acid following the addition of glucose to a medium containing VX2 tumor slices. Specifically, freshly excised tumors were washed 3 times at 4° C. in 20 ml Chance Hess Medium containing 6.2 mM KCl, 154 mM NaCl, and 11 mM NaPi, pH 7.4. Slices, 1 g each, were then prior incubated for 30 min in a Lab-Line incubator-shaker at 37° C. in 2 ml of the same medium while shaking at 50 rpm. Glucose was then added to give a final concentration of 6 mM, after which the incubation/shaking process was continued with 0.2 ml samples being removed every 30 min for up to 2 h. These samples were subjected to centrifugation at 14,000 rpm in an Eppendorf Centrifuge (Model 5415C). Then, aliquots of the supernatant, 0.01 ml, were removed from each sample, diluted with 0.03 ml of water and subjected to lactic acid determination using the kit supplied by Sigma. The latter contains, in addition to lactic dehydrogenase and NAD+, hydrazine, and glycine buffer, pH 9.2. The mixture was incubated for 30 min at 25° C. after which the absorbance due to formation of NADH was determined at 340 nm using a Gilford Model 260 spectrophotometer. To assess the elevation of the glycolytic activity of the VX2 tumor over that of liver tissue, parallel studies were always carried out in an identical manner with 1 g liver slices derived from the host liver. Finally, in those cases where agents were tested for their capacity to inhibit glycolysis, these were introduced into the system at the prior incubation step with all subsequent steps being run in parallel with those described above for the VX2 tumor or liver alone.
The screen included the following 9 compounds: 2-deoxyglucose (2DOG), 2-fluoro-2-deoxyglucose, 6-fluoro-6-deoxyglucose, 3-O-methyl glucose, 5-thio-D-glucose-6-phosphate, L-glucose, D-xylose, D-lyxose, and 3-bromopyruvic acid (3BrPA). The screen was conducted by incubating VX2 tumor slices in a medium containing 6 mM glucose with 6 mM of each of these agents at 37° C. for 5 h. The use of 6 mM glucose in the medium was used to mimic the maximal amount of glucose that might be in the blood in a real in vivo situation.
With the above preliminary data at hand, only two of the 9 compounds screened were studied in more detail. One was 2DOG because under certain conditions it is known to inhibit glycolysis when it is phosphorylated by hexokinase to 2DOG-6-P which cannot be further metabolized. The other compound tested in more detail was 3BrPA because of its effectiveness as a glycolytic inhibitor in the preliminary screen.

[2] = test system: AS-30D hepatoma cells; assay: Hepatoma cell viability by trypan blue; assay type: cell-based, rat; conditions: 20 mM, 12 h
Method: AS-30D hepatoma cells grown in the peritoneal cavity of Sprague Dawley female rats (see Materials) were adapted to grow in tissue culture in Dulbecco's modified Eagle's medium containing 10% fetal bovine serum. Cells were maintained at 37° C. in a humidified atmosphere containing 5% CO2, and counted in a Neubauer chamber after trypan blue dye addition (cell/dye volume=1/1) by visualization under a Nikon inverted microscope.
The studies described above using the VX2 tumor model for liver cancer predict that 2DOG and 3BrPA may have the capacity to kill hepatoma cells expressing the high glycolytic/high hexokinase phenotype. […] Cell killing was assessed in these experiments by counting those cells in which trypan blue had entered.

SMILES: O=C[C@H](F)[C@@H](O)[C@H](O)[C@H](O)CO [2-fluoro-2-deoxyglucose]
- inhibition of VX2 tumor glycolysis in the limited screen [1]: ineffective

SMILES: O=C[C@H](O)[C@@H](O)[C@H](O)CO [D-xylose]
- inhibition of VX2 tumor glycolysis in the limited screen [1]: ineffective

SMILES: O=C[C@@H](O)[C@@H](O)[C@H](O)CO [D-lyxose]
- inhibition of VX2 tumor glycolysis in the limited screen [1]: ineffective

SMILES: O=CC[C@@H](O)[C@H](O)[C@H](O)CO [2DOG, 2-deoxyglucose]
- inhibition of VX2 tumor glycolysis in the limited screen [1]: ineffective
- IC50 ([1]; Oryctolagus cuniculus, 0.5 h, VX2 tumor slices, agent prior incubated 30 min at 37° C., read-out: half maximal inhibition of glycolysis): ~15 mM
- concentration for maximal or complete inhibition of glycolysis ([1]; VX2 tumor slices, agent prior incubated 30 min at 37° C.): ~50 mM
- maximal inhibition of glycolysis ([1]; VX2 tumor slices, at almost 50 mM): 70%
- cells killed (trypan blue uptake) [2]: about 80%

SMILES: O=C[C@H](O)[C@@H](O)[C@H](O)[C@H](S)COP(=O)(O)O [5-thio-D-glucose-6-phosphate]
- inhibition of VX2 tumor glycolysis in the limited screen [1]: ineffective

SMILES: O=C[C@H](O)[C@@H](O)[C@H](O)[C@H](O)CF [6-fluoro-6-deoxyglucose]
- inhibition of VX2 tumor glycolysis in the limited screen [1]: ineffective

SMILES: O=C[C@@H](O)[C@H](O)[C@@H](O)[C@@H](O)CO [L-glucose]
- inhibition of VX2 tumor glycolysis in the limited screen [1]: ineffective

SMILES: CO[C@@H]([C@H](O)[C@H](O)CO)[C@@H](O)C=O [3-O-methyl glucose]
- inhibition of VX2 tumor glycolysis in the limited screen [1]: ineffective
